Measured values: ChEMBL document CHEMBL6078677, “Discovery and optimization of tetrahydroacridine derivatives as a novel class of antibiotics against multidrug-resistant Gram-positive pathogens by targeting type I signal peptidase and disrupting bacterial membrane” (Eur J Med Chem, 2025)
pKd: −log10 of the molar value. In brackets after ≈: the same amount, converted by molar mass. Activity calls are given as the source filed them. The calls are words filed in the database; no cut-off is given here.

Columns and labels:
[1] = Cytotoxicity against human HEp-2 cells assessed as cell viability at 8 times of MIC incubated for 48 hrs by CCK8 assay (reference value: 100 %); type: toxicity, cell-based; settings: read-out: Activity
[2] = Acute toxicity in ICR mouse model assessed as change in heart pathology at 25 to 100 mg/kg, IG administered for 7 days by H and E staining based analysis; type: organism-based; settings: in vivo, po, 168 h, dose 25-100 mg/kg, time 7 day
[3] = Cytotoxicity against human HEp-2 cells assessed as cell viability at 2 times of MIC incubated for 48 hrs by CCK8 assay (reference value: 100 %); type: toxicity, cell-based; settings: read-out: Activity
[4] = Hemolytic activity in Kunming mouse erythrocytes assessed as hemolysis at 8 times of MIC measured after 1 hrs by absorbance based assay relative to control; type: toxicity, cell-based, Erythrocyte; settings: read-out: Activity
Staphylococcus aureus [5] = assay: microbe, parasite or virus in culture; type: functional; settings: M92-1, time 20 hrs
Description: Antimicrobial activity against Staphylococcus aureus M92-1 harboring erythromycin resistance rRNA methylase B, tetracycline efflux protein L and oxazolidinone-phenicol transferable resistance gene assessed as inhibition of visible growth of bacteria incubated for 20 hrs by broth microdilution method

Streptococcus suis [6] = assay: microbe, parasite or virus in culture; type: functional; settings: SH0918, time 20 hrs
Description: Antimicrobial activity against Streptococcus suis SH0918 harboring erythromycin-resistance rRNA methylase B, tetracycline efflux protein O and oxazolidinone phenicol transferable resistance gene assessed as inhibition of visible growth of bacteria incubated for 20 hrs by broth microdilution method

Enterococcus faecalis [7] = assay: Antimicrobial activity against Enterococcus faecalis J2 harboring erythromycin-resistance rRNA methylase B and oxazolidinone phenicol transferable resistance gene assessed as inhibition of visible growth of bacteria incubated for 20 hrs by broth microdilution method; type: functional
Staphylococcus aureus [8] = assay: (§1) Antibacterial activity against methicillin-resistant Staphylococcus aureus YZSA-24 infected in cyclophosphamide-induced neutrophil depleted female ICR mouse model of skin infection assessed as log reduction in bacterial load at 2.5 %, TOP preadministered with cyclophosphamide for 5 days followed by bacterial administration and measured after 25 hrs of compound administration relative to ampicillin group; type: functional
[9] = Metabolic stability in rat liver microsomes assessed as half-life at 100 uM preincubated for 5 mins followed by NADPH addition and measured upto 60 mins by LC-MS/MS analysis; type: ADME, Microsome; settings: time < 65 min
[10] = Cytotoxicity against human Caco-2 cells assessed as cell viability at 1 time of MIC incubated for 48 hrs by CCK8 assay (reference value: 99.54 %); type: toxicity, cell-based; settings: read-out: Activity
Signal peptidase I = Signal peptidase I (Escherichia coli K-12, UniProt P00803); assay: Binding affinity to recombinant 6His-tagged Escherichia coli LepB (77 to 324 residues) extracted from Escherichia coli BL21 (DE3) cells assessed as dissociation constant by MST analysis
Streptococcus pyogenes = assay: Antimicrobial activity against Streptococcus pyogenes DL02 harboring erythromycin-resistance rRNA methylase B assessed as inhibition of visible growth of bacteria incubated for 20 hrs by broth microdilution method; type: functional
Staphylococcus aureus [11] = assay: Disruption of preformed biofilm in Staphylococcus aureus ATCC 29213 at 1 microg/ml measured after 72 hrs by crystal violet staining based analysis relative to control; type: functional; settings: dose 1 µg/ml
Acinetobacter baumannii [12] = assay: Antimicrobial activity against Acinetobacter baumannii AB11 assessed as inhibition of visible growth of bacteria incubated for 20 hrs by broth microdilution method; type: functional
Escherichia coli = assay: Antimicrobial activity against Escherichia coli ATCC 25922 assessed as inhibition of visible growth of bacteria incubated for 20 hrs by broth microdilution method; type: functional
Enterococcus faecium [13] = assay: Antimicrobial activity against Enterococcus faecium QF31 harboring erythromycin resistance rRNA methylase B and chloramphenicol-florfenicol resistance methylase assessed as inhibition of visible growth of bacteria incubated for 20 hrs by broth microdilution method; type: functional
Acinetobacter baumannii [14] = assay: Antimicrobial activity against Acinetobacter baumannii 7979 assessed as inhibition of visible growth of bacteria incubated for 20 hrs by broth microdilution method; type: functional
[15] = Hemolytic activity in Kunming mouse erythrocytes assessed as hemolysis at 1 time of MIC measured after 1 hrs by absorbance based assay relative to control; type: toxicity, cell-based, Erythrocyte; settings: read-out: Activity
Staphylococcus aureus [16] = assay: Antibiofilm activity against Staphylococcus aureus ATCC 29213 assessed as eradication of preformed biofilm measured after 72 hrs by crystal violet staining based analysis; type: functional, organism-based
Pseudomonas aeruginosa = assay: Antimicrobial activity against Pseudomonas aeruginosa PA01 assessed as inhibition of visible growth of bacteria incubated for 20 hrs by broth microdilution method; type: functional
Staphylococcus aureus [17] = assay: as §1, with “vehicle” for “ampicillin”; type: functional
[18] = Acute toxicity in ICR mouse model assessed as change in liver pathology at 25 to 100 mg/kg, IG administered for 7 days by H and E staining based analysis; type: organism-based; settings: in vivo, po, 168 h, dose 25-100 mg/kg, time 7 day
Streptococcus suis [19] = assay: Antimicrobial activity against Streptococcus suis P1/7 assessed as inhibition of visible growth of bacteria incubated for 20 hrs by broth microdilution method; type: functional
Streptococcus agalactiae = assay: Antimicrobial activity against Streptococcus agalactiae DL03 harboring erythromycin-resistance rRNA methylase B assessed as inhibition of visible growth of bacteria incubated for 20 hrs by broth microdilution method; type: functional
[20] = Hemolytic activity in Kunming mouse erythrocytes assessed as hemolysis at 4 times of MIC measured after 1 hrs by absorbance based assay relative to control; type: toxicity, cell-based, Erythrocyte; settings: read-out: Activity
[21] = Cytotoxicity against human HEp-2 cells assessed as cell viability at 4 times of MIC incubated for 48 hrs by CCK8 assay (reference value: 100 %); type: toxicity, cell-based; settings: read-out: Activity
[22] = Acute toxicity in ICR mouse model assessed as change in kidney pathology at 25 to 100 mg/kg, IG administered for 7 days by H and E staining based analysis; type: organism-based; settings: in vivo, po, 168 h, dose 25-100 mg/kg, time 7 day
Staphylococcus aureus [23] = assay: Antibiofilm activity in Staphylococcus aureus ATCC 29213 assessed as reduction in biofilm formation at 0.5 to 2 times of MIC measured after 72 hrs by SEM analysis; type: functional, organism-based
[24] = Hemolytic activity in Kunming mouse erythrocytes assessed as hemolysis at 2 times of MIC measured after 1 hrs by absorbance based assay relative to control; type: toxicity, cell-based, Erythrocyte; settings: read-out: Activity
Enterococcus faecalis [25] = assay: Antimicrobial activity against Enterococcus faecalis ES01 harboring erythromycin-resistance rRNA methylase B and vanB-type vancomycin-resistance locus assessed as inhibition of visible growth of bacteria incubated for 20 hrs by broth microdilution method; type: functional
Cell membrane = assay: Disruption of cell membrane integrity in Staphylococcus aureus ATCC 29213 assessed as appearance of rupture surface at 0.5 to 2 times of MIC by scanning electron microscopic analysis; type: subcellular
Enterococcus faecium [26] = assay: Antimicrobial activity against Enterococcus faecium HFY01 assessed as inhibition of visible growth of bacteria incubated for 20 hrs by broth microdilution method; type: functional
Staphylococcus aureus [27] = assay: Bactericidal activity against Staphylococcus aureus ATCC 29213 assessed as bacterial eradication at 4 times of MIC measured after 24 hrs by time-kill kinetics assay relative to control; type: functional
[28] = Cytotoxicity against human Caco-2 cells assessed as cell viability at 16 times of MIC incubated for 48 hrs by CCK8 assay (reference value: 99.54 %); type: toxicity, cell-based; settings: read-out: Activity
Staphylococcus aureus [29] = assay: Drug resistance, ratio of MIC for Staphylococcus aureus ATCC 29213 measured after 28 days to MIC for Staphylococcus aureus ATCC 29213 measured after 20 hrs; type: functional
Staphylococcus aureus [30] = assay: microbe, parasite or virus in culture; type: functional; settings: M147-2, time 20 hrs
Description: Antimicrobial activity against Staphylococcus aureus M147-2 harboring erythromycin resistance rRNA methylase B, tetracycline efflux protein L and chloramphenicol-florfenicol resistance methylase assessed as inhibition of visible growth of bacteria incubated for 20 hrs by broth microdilution method

Enterococcus faecalis [31] = assay: microbe, parasite or virus in culture; type: functional; settings: SF23-1, time 20 hrs
Description: Antimicrobial activity against Enterococcus faecalis SF23-1 harboring erythromycin-resistance rRNA methylase B, tetracycline efflux protein L and chloramphenicol-florfenicol resistance methylase assessed as inhibition of visible growth of bacteria incubated for 20 hrs by broth microdilution method

Staphylococcus aureus [32] = assay: as §1, with “1” for “2.5”, “vehicle” for “ampicillin”; type: functional

Signal peptidase I, sequence (P00803 whole entry, the tested form may be a part): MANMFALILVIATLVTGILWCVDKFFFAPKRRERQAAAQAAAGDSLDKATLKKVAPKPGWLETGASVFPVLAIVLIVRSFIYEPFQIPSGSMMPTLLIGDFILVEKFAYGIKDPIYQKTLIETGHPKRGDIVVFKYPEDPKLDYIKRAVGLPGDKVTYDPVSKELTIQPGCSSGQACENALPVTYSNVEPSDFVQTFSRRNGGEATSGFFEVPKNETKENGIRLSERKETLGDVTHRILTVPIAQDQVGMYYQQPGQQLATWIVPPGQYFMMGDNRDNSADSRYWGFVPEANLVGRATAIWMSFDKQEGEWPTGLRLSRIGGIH

For CC1C/C(=C\c2ccc(-c3ccc(Cl)c(C(F)(F)F)c3)s2)c2nc3ccccc3c(C(=O)O)c2C1 (racemic), the viability at 48 h, 8 times of MIC [1] was 82.5%, the Activity [2] was “Non-toxic” and the viability at 48 h, 2 times of MIC [3] was 93.7%. The hemolysis at 1 h, 8 times of MIC [4] was 5.4%, the MIC (Staphylococcus aureus [5]) was 1 µg/mL (≈ 1.95 µM) and the MIC (Streptococcus suis [6]) was 16 µg/mL (≈ 31.1 µM). It also gave an MIC (Enterococcus faecalis [7]) of 2 µg/mL (≈ 3.89 µM), an Activity (Staphylococcus aureus [8]) of 2.3 log10CFU/ml and a half-life at 100 µM [9] greater than 3.08 h. The viability at 48 h, 1 time of MIC [10] was 96.6%, the pKd (Signal peptidase I) was 4.87 and the MIC (Streptococcus pyogenes) was 16 µg/mL (≈ 31.1 µM). It also gave an Activity (Staphylococcus aureus [11]) of roughly 50%, an MIC (Acinetobacter baumannii [12]) greater than 128 µg/mL and an MIC (Escherichia coli) greater than 128 µg/mL. The MIC (Enterococcus faecium [13]) was 2 µg/mL (≈ 3.89 µM), the MIC (Acinetobacter baumannii [14]) was greater than 128 µg/mL and the hemolysis at 1 h, 1 time of MIC [15] was 0%. The Activity (Staphylococcus aureus [16]) was “Dose-dependent-effect”, the MIC (Pseudomonas aeruginosa) was greater than 128 µg/mL and the Activity (Staphylococcus aureus [17]) was 2.36 log10CFU/ml. For the same compound, the Activity [18] was “Non-toxic”, the MIC (Streptococcus suis [19]) was 16 µg/mL (≈ 31.1 µM) and the MIC (Streptococcus agalactiae) was 32 µg/mL (≈ 62.3 µM). The hemolysis at 1 h, 4 times of MIC [20] was 0.65%, the viability at 48 h, 4 times of MIC [21] was 91.4% and the Activity [22] was “Non-toxic”. For the same compound, the Activity (Staphylococcus aureus [23]) was “Active; Some Sections Appeared To Be Damaged And Broken”, the hemolysis at 1 h, 2 times of MIC [24] was 0% and the MIC (Enterococcus faecalis [25]) was 2 µg/mL (≈ 3.89 µM). The Activity (Cell membrane) was “Active”, the MIC (Enterococcus faecium [26]) was 2 µg/mL (≈ 3.89 µM) and the Activity (Staphylococcus aureus [27]) was 100%. For the same compound, the viability at 48 h, 16 times of MIC [28] was 61.7%, the Ratio (Staphylococcus aureus [29]) was 2 and the MIC (Staphylococcus aureus [30]) was 1 µg/mL (≈ 1.95 µM). It also gave an MIC (Enterococcus faecalis [31]) of 1 µg/mL (≈ 1.95 µM) and an Activity (Staphylococcus aureus [32]) of 1.27 log10CFU/ml.
